This is an account of results in PubChem BioAssay AID743422 (The Scripps Research Institute Molecular Screening Center, 2014).

For the assay, the target named is Sphingosine 1-phosphate receptor 1 (Homo sapiens) (UniProt P21453). The assay is described as follows: human S1P1 antagonists, dose response, counter-screen for S1PR3 antagonist project, cell-based, luminescence, late-stage (AID 743422). The note with it: Tango EDG-1-bla U2OS cells, beta-lactamase FRET reporter, 5 h S1P.

SMILES strings stand for the structures. pIC50: −log10 of the molar value. Activity calls are given as the source filed them. How the calls were made is not given here.

Sphingosine 1-phosphate receptor 1 (Homo sapiens), sequence (P21453 whole entry, looked up): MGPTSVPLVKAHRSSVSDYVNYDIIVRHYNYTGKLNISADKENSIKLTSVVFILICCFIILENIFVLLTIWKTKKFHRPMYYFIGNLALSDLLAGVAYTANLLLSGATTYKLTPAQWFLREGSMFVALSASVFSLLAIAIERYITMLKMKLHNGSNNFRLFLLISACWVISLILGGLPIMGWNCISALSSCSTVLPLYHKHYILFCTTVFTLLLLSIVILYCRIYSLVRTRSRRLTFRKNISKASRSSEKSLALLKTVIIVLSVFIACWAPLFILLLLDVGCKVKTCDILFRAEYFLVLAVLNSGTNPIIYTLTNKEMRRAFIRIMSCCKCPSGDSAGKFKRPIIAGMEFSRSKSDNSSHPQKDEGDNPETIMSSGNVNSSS

Consider `O=C(NC(c1ccccc1)c1nc(-c2ccccc2)no1)c1ccc(Cl)cc1` (centres undefined), for which the pIC50 was 5.14.

For the compound `O=C(NC(c1ccccc1)c1nc(-c2ccccc2)no1)c1cccc(Cl)c1` (centres undefined), the pIC50 was 5.80. `O=C(NC(c1ccc(Cl)cc1)c1nc(-c2cccc(Cl)c2)no1)c1cccc(Cl)c1` (centres undefined): the IC50 is > 28.2 µM (inactive). On the same count and under the same terms, to `O=C(NC(c1ccc(Cl)cc1)c1nc(-c2ccccn2)no1)c1cccc(Cl)c1` (centres undefined) belongs > 28.2 µM (inactive).

Consider `Cc1ccc(C(=O)NC(c2ccccc2)c2nc(-c3ccccc3)no2)cc1` (centres undefined), for which the IC50 is > 28.2 µM (inactive). Same read-out and setting: then `O=C(NC(c1ccc(Cl)cc1)c1nc(-c2ccccc2)no1)c1ccc(Cl)c(Cl)c1` (centres undefined), with “inactive”; and `O=C(NC(Cc1ccccc1)c1nc(-c2ccccc2)no1)c1cccc(Cl)c1` (centres undefined), with > 28.2 µM (inactive); and `COc1ccc(C(=O)NC(c2ccccc2)c2nc(-c3ccccc3)no2)cc1` (centres undefined), with > 28.2 µM (inactive).

Take `CCc1ccc(C(NC(=O)c2cccc(Cl)c2)c2nc(-c3ccccc3)no2)cc1` (centres undefined): the IC50 is > 28.2 µM (inactive). Consider `O=C(c1cccc(Cl)c1)N(CCO)C(c1ccc(Cl)c(Cl)c1)c1nc(-c2ccccc2)no1` (centres undefined), for which the negative logarithm of the IC50 (pIC50) was 5.57. Turning to `O=C(NC(c1ccc(Cl)cc1)c1nc(-c2ccccc2)no1)c1cccc(Cl)c1` (centres undefined), the IC50 was > 28.2 µM (inactive). With `O=C(NC(c1ccc(Cl)c(Cl)c1)c1nc(-c2ccccc2)no1)c1ccc(Cl)cc1` (centres undefined), the negative logarithm of the IC50 (pIC50) was 5.92. Same read-out and setting: to `O=C(NC(c1cccc(Cl)c1)c1nc(-c2ccccc2)no1)c1cc(Cl)cc(Cl)c1` (centres undefined) belongs 6.95. With `O=C(NC(c1ccc(Br)cc1)c1nc(-c2ccccc2)no1)c1ccc(Cl)c(Cl)c1` (centres undefined), the IC50 was > 28.2 µM (inactive).
